This note sets out measurements from patent publication US10721929B2, “Heterocyclic compound and harmful-arthropod-controlling agent containing same” (Sumitomo Chemical Company, Limited, priority 2016, dated 2020).

The structures appear in SMILES notation.

The test deals with western corn rootworm. The test is described as follows: Test Example 5: corn seedling immersion test, western corn rootworm larvae. In kind it is in vivo. The conditions noted are these: Zea mays, 120 h, corn seedlings immersed 30 seconds, ten 2-instar larvae, five days later, read-out: mortality rate of insects. On the procedure: 1 mg of each test compound is dissolved in 50 μL of a mixed solution of polyoxyethylene sorbitan monococoate:acetone=5.95 (volume ratio). To the resultant is added water containing 0.03% by volume of a spreading agent, to prepare a diluted solution containing a predetermined concentration of the test compound.
Seeds of corn (Zea mays) are seeded onto a tray lined with wet Kimwipes, After the corn has grown for 5 days, die entire seedlings are immersed into the diluted solution for 30 seconds. Thereafter, two seedlings are put in a petri dish (diameter of 90 mm), and ten 2-instar larvae of western corn rootworm are released thereinto. Five days later, the number of dead insects is counted, and a mortality rate of insects is calculated by the following expression. Mortality rate of insects (%)=(number of dead insects/10)×100.

In general, mortality refers to the share of the test organisms that died. With `CCSc1c(-c2ccc(OCC(F)(F)C(F)(F)F)cn2)nc2ccc(C(F)(F)F)cn12` [Compound 1], the mortality at 500 ppm is at least 80%.
